Assay results published in US20150209474A1, “METHOD FOR PRODUCING AN ALGINATE COATED TITANIUM DIOXIDE SCAFFOLD” (CORTICALIS AS, priority 2012, published 2015).
One block for each molecule: values may come before it. Ends that are not written are not given here.

Legend:
[1] = tested on: primary human osteoblasts; assay: Cytotoxicity assay: LDH activity in culture medium; assay type: cell-based; settings: for LDH activity compared to alginate-coated scaffolds without SIM: 14-day period
Experimental: Cells from passages 7-9 were seeded on scaffolds at a density of 400.000 cells/ml. […] Scaffolds soaked with culture medium were placed in 48-well culture plates. […] The culture medium was replaced every other day. Collected medium was saved for use in cytotoxicity, alkaline phosphatase (ALP) activity and protein expression assays.

MC3T3-E1 cells [2] = assay: Gene expression of adhesion and osteoblast markers by real-time RT-PCR, cells on alginate hydrogels; assay type: cell-based, mouse; settings: 50 μg/ml in 2% alginate gel
Experimental: (§1) The mouse osteoblastic cell line MC3T3-E1 (DSMZ, Braunschweig, Germany) was maintained as previously described (Tiainen H et al., 2011). Before seeding, 24-well culture plates containing crosslinked alginate hydrogels were washed with 750 μl of culture media to remove the excess of CaCl2. After evaluation of the efficiency of cell adhesion on 2% alginate gel using different cell densities, for the final experiments, cells were seeded at a density of 100 000 cells/well. Media was refreshed twice a week. Culture media was collected 24 h after seeding to study cell viability. Cells were harvested at days 14 and 21 to analyze gene expression of adhesion and osteogenic-related markers using real-time RT-PCR. Cultures were routinely observed using light microscopy (Leica DMIRB, Leica Microsystems Wetzlar GmbH, Germany).
Total RNA was isolated using Tripure® (Roche Diagnostics, Mannheim, Germany), according to the manufacturer's protocol. Total RNA was quantified at 260 nm using a Nanodrop spectrophotometer (NanoDrop Technologies, Wilmington, Del., USA).
The same amount of RNA (350 ng) was reverse transcribed to cDNA using high capacity RNA-to-cDNA kit (Applied Biosystems, Foster City, Calif.), according to the protocol of the supplier. Aliquots of each cDNA were frozen (−20° C.) until the PCR reactions were carried out.
Real-time PCR was performed in the Lightcycler 480® (Roche Diagnostics, Mannheim, Germany) using SYBR green detection. Real-time PCR was done for two reference genes (18SrRNA and glyceraldehyde-3-phosphate dehydrogenase (GAPDH)) and ten target genes (integrin alpha 8 (Itga8), integrin beta1 (Itgb1), integrin beta 3 (Itgb3), fibronectin 1 (Fn1), bone morphogenetic protein 2 (Bmp2), collagen type I (Coll-I), bone sialoprotein (Bsp), alkaline phosphatase (Alp), osteocalcin (Oc) and osteopontin (Opn)).
The primer sequences are detailed in Table 2. Reaction conditions and relative quantification have been done as previously described (Tiainen H et al., 2011).

[3] = Peptide release profile from 2% alginate hydrogel (fluorescence spectroscopy); assay type: physicochemical
Experimental: To study the peptide release profile, P2 was labeled with FITC. The release of peptide contained into the 2% alginate hydrogel (50 μg/ml) was quantified by fluorescence spectroscopy. First, alginate hydrogels were washed with culture media to remove the excess of CaCl2. Then, 750 μl of cell culture media were added onto peptide loaded alginate hydrogel. The samples were incubated at 37° C. and 5% CO2 for 21 days and cell culture media was changed twice a week. At prefixed time points (24 h, 4 d, 7 d, 11 d, 14 d, 18 d and 21 d), supernatants were collected and analyzed by fluorescence spectroscopy (λ ex 490 nm and λ em 525 nm) to determine the amount of peptide released to the media. The amount of peptide released during the washing step was also measured. The experiment was performed three times, and each sample analyzed in triplicate.
Relative fluorescence units were correlated with the amount of peptide released using a linear standard curve for each time point.

MC3T3-E1 cells [4] = assay: Cell viability: LDH activity in culture media, cells on alginate hydrogels; assay type: cell-based, mouse; settings: 50 μg/ml in alginate gel
Experimental: as §1
The LDH activity determined in the culture media after 24 h was taken as an indicator of membrane leakage or cell lysis. The activity of the cytosolic enzyme was estimated as previously described (Rupert M et al., 2011).

[5] = Peptide 2 release profile from TiO2 scaffolds coated with 2% alginate gel (UV-Vis); assay type: physicochemical; settings: P2-alginate-coated scaffolds, distilled water, 37° C.
Experimental: In order to mimic cell culture conditions, the samples were agitated on an orbital shaker at 200 rpm (IKA® Schüttler MTS 2, Germany) for 6 h at 37° C. and in humidity conditions (using a distilled water container). Then, samples were maintained at 37° C. in a humidified atmosphere for up to 21 days. At prefixed time points (2d, 5d, 7d, 9d, 12d, 14d, 16d, 19d and 21d), distilled water was collected and fresh distilled water was added into each well. Sample absorbances were analyzed by UV-Vis spectrophotometer (PerkinElmer® Lambda 25 UV/Vis Systems, USA) at a wavelength of 206 nm to determine the amount of peptide released. In parallel, TiO2 scaffolds coated with one layer of 2% alginate gel were used as control to subtract absorbance values obtained from degradation products from alginate.
Relative absorbance units were correlated with the amount of peptide released using a linear standard curve for each time point and the cumulative P2 released was then calculated. The experiment was performed in triplicate.

Molecule: CCC(C)(C)C(=O)O[C@H]1C[C@@H](C)C=C2C=C[C@H](C)[C@H](CC[C@@H]3C[C@@H](O)CC(=O)O3)[C@H]21 [SIM, simvastatin]
LDH activity compared to alginate-coated scaffolds without SIM ([1]; scaffolds with 10 nM SIM): Neither of the SIM concentrations caused a significant increase
LDH activity compared to alginate-coated scaffolds without SIM ([1]; scaffolds with 10 μM SIM): Neither of the SIM concentrations caused a significant increase
LDH activity, scaffolds with 10 μM SIM compared to scaffolds with 10 nM SIM ([1]; throughout the 14-day period): higher

Molecule: PHQPMQPQPPVHPMQPLPPQPPLPP (Synthetic biomineralizing peptide) [Peptide P6]
ALP mRNA levels compared to control (MC3T3-E1 cells [2]; 14 days): significantly decreased
Expression of Opn compared to control (MC3T3-E1 cells [2]; 14 days): decreased significantly
Fn1 mRNA compared to control (MC3T3-E1 cells [2]; 14 days): decreased significantly
Itgb1 mRNA levels compared to control (MC3T3-E1 cells [2]; 14 days): significantly decreased
Itgb3 mRNA compared to control (MC3T3-E1 cells [2]; 14 days): decreased significantly
Bmp2 relative mRNA levels (MC3T3-E1 cells [2]; 14 days of treatment): increased significantly
ALP mRNA levels compared to control (MC3T3-E1 cells [2]; 21 days): significantly decreased
Itgb1 mRNA levels compared to EMD (MC3T3-E1 cells [2]; 21 days): reduced significantly
Itgb3 and Fn1 mRNA compared to control (MC3T3-E1 cells [2]; 21 days): no differences
Oc mRNA levels compared to control (MC3T3-E1 cells [2]; 21 days): increased

burst release of the peptide during the first 24 h of incubation ([3]; P2 FITC-labeled, 50 μg/ml in 2% alginate hydrogel, culture media, 37° C.): 54.67%
total peptide theoretically contained in the hydrogel not released after 21 days ([3]; P2 FITC-labeled, 2% alginate hydrogel, 21 days): 5.6%
peptide slowly released up to 11 days ([3]; P2 FITC-labeled, 2% alginate hydrogel, after the first 24 h, up to 11 days): 25.8%
loaded peptide released during the washing step ([3]; washing of alginate hydrogels with culture media to remove excess CaCl2): 12.7%
amount of peptide released after 5 days [5]: 9.4 % of the cumulative amount rel
Molecule: PLVPSQPLVPSQPLVPSQPQPPLPP [Peptide P2]
cell viability compared to EMD (MC3T3-E1 cells [4]; after 24 h): significantly increased
Expression of Opn compared to control (MC3T3-E1 cells [2]; 14 days): decreased significantly
Fn1 mRNA compared to control (MC3T3-E1 cells [2]; 14 days): decreased significantly
Itgb1 mRNA levels compared to control (MC3T3-E1 cells [2]; 14 days): significantly decreased
Itgb3 mRNA compared to control (MC3T3-E1 cells [2]; 14 days): decreased significantly
ALP mRNA levels compared to control (MC3T3-E1 cells [2]; 21 days): significantly decreased
Bmp2 relative mRNA levels compared to EMD (MC3T3-E1 cells [2]; 21 days): decreased
Itgb3 and Fn1 mRNA compared to control (MC3T3-E1 cells [2]; 21 days): no differences
burst release of the peptide during the first 2 days of incubation [5]: 42.8 % of the cumulative amount of P2 released after 21 days

Molecule: PLVPSSPLVPCCPLVPCCPSPPLPP (Synthetic biomineralizing peptide) [Peptide P5]
toxic effects compared to EMD and to untreated alginate gel (MC3T3-E1 cells [4]; 24 h): significantly lower
Oc mRNA levels compared to control (MC3T3-E1 cells [2]; 21 days): increased
Expression of Itga8 compared to control (MC3T3-E1 cells [2]; "after days of culture" (number not given)): increased
Itga8 expression (MC3T3-E1 cells [2]; after 21 days of treatment): markedly
